From DBAASP
Converted amounts (≈) assume the structure as drawn. “And” between values parts separate entries of the source, which are not always exact repeats. Equal entries are not always repeated. Each block holds one molecule with its values, some of them ahead of it.

Assays:
Assay in all cases: ≥ marks a high value that may be exact or a test limit, other limits are often not marked, values filed in µg/mL are converted to µM
[1] = system: Proteus vulgaris NCTC 4635
[2] = system: Escherichia coli ATCC 8739
[3] = system: Bacillus subtilis ATCC 9372
[4] = system: Pseudomonas aeruginosa ATCC 9027
[5] = system: Staphylococcus aureus ATCC 6538
[6] = system: Enterococcus faecalis ATCC 29212
[7] = system: Staphylococcus aureus NCTC 10788
[8] = system: Staphylococcus aureus ATCC 33591
[9] = system: Staphylococcus aureus S015
[10] = system: Escherichia coli NCTC 10418
[11] = system: Candida albicans NCPF 1467
[12] = system: Bacillus subtilis AB91021
[13] = system: Acinetobacter baumannii ATCC 19606
[14] = system: Staphylococcus aureus P1369
[15] = system: Micrococcus luteus AB93113
[16] = system: Staphylococcus epidermidis P1389
[17] = system: Staphylococcus aureus AB94004
[18] = system: Candida albicans AY93025
[19] = system: Klebsiella pneumoniae ATCC 700603
[20] = system: Escherichia coli ATCC 35218
[21] = system: Bacillus thuringiensis AB92037
[22] = system: Acinetobacter baumannii
[23] = system: Escherichia coli ATCC 25922
[24] = system: Staphylococcus aureus P1374
[25] = system: Staphylococcus aureus P1386
[26] = system: Pseudomonas aeruginosa ATCC 27853
[27] = system: Escherichia coli AB94012
[28] = system: Pseudomonas aeruginosa AB93066
[29] = system: Staphylococcus aureus ATCC 29213
[30] = system: Staphylococcus aureus ATCC 25923
[31] = system: Staphylococcus aureus ATCC 2592
[32] = system: Klebsiella pneumoniae
[33] = system: Nocardia asteroides
[34] = system: Serratia marcescens
[35] = system: Escherichia coli
[36] = system: Staphylococcus aureus
[37] = system: Bacillus anthracis
[38] = system: Bacillus cereus
[39] = system: Pseudomonas aeruginosa PAO1
[40] = system: Pseudomonas aeruginosa 08031014
[41] = system: Staphylococcus aureus ATCC 43300
[42] = system: Escherichia coli ML-35p
[43] = system: Candida albicans ATCC 20032
[44] = system: Bacillus subtilis ATCC 6633

SMILES: CC[C@H](C)[C@H](NC(=O)[C@@H](NC(=O)[C@H](CO)NC(=O)[C@H](C)NC(=O)[C@@H](NC(=O)[C@H](CCCCN)NC(=O)[C@H](CCCCN)NC(=O)[C@@H](NC(=O)[C@@H](NC(=O)[C@@H](N)CC(=O)O)C(C)C)[C@@H](C)CC)C(C)C)C(C)C)C(=O)NCC(=O)O [DVIKKVASVIG]
MIC [1]: ≥ 908 µM | MIC [2]: ≥ 908 µM | MIC [3]: ≥ 908 µM | MIC [4]: > 908 µM | MIC [5]: > 908 µM

SMILES: CC[C@H](C)[C@H](NC(=O)[C@H](CC(C)C)NC(=O)CNC(=O)[C@@H]1CCCN1C(=O)[C@@H](NC(=O)[C@H](CCSC)NC(=O)CNC(=O)[C@H](CC(C)C)NC(=O)[C@@H](N)Cc1ccccc1)[C@@H](C)CC)C(=O)NCC(=O)NCC(=O)N[C@@H](CC(C)C)C(=O)N[C@H](C(=O)N[C@@H](CO)C(=O)N[C@@H](C)C(=O)N[C@@H](Cc1ccccc1)C(=O)N[C@@H](CCCCN)C(=O)O)[C@@H](C)CC [FLGMIPGLIGGLISAFK]
MIC [6]: 39.9 µM (≈ 69.2 µg/mL) | MIC [7]: 5 µM (≈ 8.67 µg/mL) | MIC [8]: 9.98 µM (≈ 17.3 µg/mL) | MIC [9]: 9.98 µM (≈ 17.3 µg/mL) | MIC [10]: ≥ 320 µM | MIC [11]: 10 µM (≈ 17.3 µg/mL)

SMILES: CC[C@H](C)[C@H](NC(=O)[C@H](C)NC(=O)CNC(=O)[C@@H]1CCCN1C(=O)[C@@H](NC(=O)[C@H](CC(C)C)NC(=O)CNC(=O)[C@H](Cc1c[nH]c2ccccc12)NC(=O)[C@H](CC(C)C)NC(=O)[C@@H](N)Cc1ccccc1)[C@@H](C)CC)C(=O)N[C@@H](CO)C(=O)N[C@@H](C)C(=O)N[C@H](C(=O)N[C@H](C(=O)N[C@@H](CO)C(=O)N[C@@H](CC(C)C)C(=O)N[C@H](C(=O)N[C@@H](CCCCN)C(=O)N[C@@H](CCCCN)C(N)=O)[C@@H](C)CC)[C@@H](C)O)C(C)C [FLWGLIPGAISAVTSLIKK]
MIC [12]: 4.96 µM (≈ 10 µg/mL) | MIC [13]: 9.93 µM and 7.94 µM | MIC [6]: 31.8 µM (≈ 64 µg/mL) | MIC [14]: 4.96 µM (≈ 10 µg/mL) | MIC [15]: 2.48 µM (≈ 5 µg/mL) | MIC [16]: 4.96 µM (≈ 10 µg/mL) | MIC [17]: 2.48 µM (≈ 5 µg/mL) | MIC [18]: 9.93 µM (≈ 20 µg/mL) | MIC [19]: > 31.8 µM | MIC [20]: 31.8 µM (≈ 64 µg/mL) | MIC [21]: 4.96 µM (≈ 10 µg/mL) | MIC [22]: 14.4 µM (≈ 29.1 µg/mL) | MIC [23]: 31.8 µM (≈ 64 µg/mL) | MIC [24]: 4.96 µM (≈ 10 µg/mL) | MIC [25]: 4.96 µM (≈ 10 µg/mL) | MIC [26]: > 31.8 µM | MIC [27]: ≥ 49.6 µM | MIC [28]: ≥ 49.6 µM | MIC [29]: 7.94 µM (≈ 16 µg/mL) | MIC [30]: 15.9 µM (≈ 32 µg/mL)

SMILES: CC[C@H](C)[C@H](NC(=O)[C@H](Cc1ccccc1)NC(=O)[C@@H](NC(=O)[C@@H](N)CCCCN)C(C)C)C(=O)N[C@@H](C)C(=O)N[C@H](C(=O)N[C@@H](CC(C)C)C(=O)N[C@H](C(=O)N[C@H](C(=O)N[C@@H](CO)C(=O)N[C@@H](CO)C(=O)N[C@@H](Cc1ccccc1)C(=O)N[C@@H](CC(C)C)C(=O)N[C@@H](CC(C)C)C(=O)N[C@@H](C)C(=O)N[C@@H](CCCCN)C(=O)N1CCC[C@H]1C(=O)N1CCC[C@H]1C(=O)N[C@@H](CCCN=C(N)N)C(=O)N[C@H](C(=O)O)C(C)C)C(C)C)C(C)C)[C@@H](C)O [KVFIATLVVSSFLLAKPPRV]
MIC [35]: > 117 µM | MIC [36]: > 117 µM | MIC [37]: ≥ 117 µM | MIC [38]: ≥ 117 µM

Continued, values first:

MIC [31]: 5.64 µM (≈ 9.37 µg/mL) | MIC [32]: > 60.1 µM | MIC [33]: 5.64 µM (≈ 9.37 µg/mL) | MIC [23]: > 60.1 µM | MIC [34]: ≥ 60.1 µM
SMILES: CC[C@H](C)[C@@H]1NC(=O)[C@H](CCCCN)NC(=O)[C@@H](NC(=O)[C@H](CCSC)NC(=O)[C@@H](NC(=O)[C@H](CC(C)C)NC(=O)[C@@H]2CCCN2C(=O)[C@H](CC(C)C)NC(=O)[C@@H](NC(=O)[C@@H](N)Cc2ccccc2)C(C)C)C(C)C)CSSC[C@@H](C(=O)O)NC(=O)[C@H](CCCCN)NC(=O)[C@H](CCCN=C(N)N)NC(=O)[C@H](CC(C)C)NC1=O [FVLPLVMCKILRKC]

MIC [35]: 24 µM (≈ 53 µg/mL) | MIC [39]: 4.24 µM (≈ 9.38 µg/mL) | MIC [40]: 17 µM (≈ 37.5 µg/mL) | MIC [41]: 4.24 µM (≈ 9.38 µg/mL) | MIC [42]: 17 µM (≈ 37.5 µg/mL) | MIC [43]: 8.48 µM (≈ 18.8 µg/mL) | MIC [23]: 17 µM (≈ 37.5 µg/mL) | MIC [26]: 8.48 µM (≈ 18.8 µg/mL) | MIC [44]: ≥ 45.3 µM | MIC [30]: 4.24 µM (≈ 9.38 µg/mL)
SMILES: CC[C@H](C)[C@H](NC(=O)[C@H](CCCCN)NC(=O)[C@@H](NC(=O)[C@H](Cc1c[nH]c2ccccc12)NC(=O)[C@H](CS)NC(=O)[C@H](CCCNC(=N)N)NC(=O)[C@@H]1CCCN1C(=O)[C@@H](N)CCCNC(=N)N)[C@@H](C)CC)C(=O)N[C@@H](CCCCN)C(=O)N[C@@H](Cc1ccccc1)C(=O)N[C@@H](CCCNC(=N)N)C(=O)N[C@@H](CS)C(=O)N[C@@H](CCCCN)C(=O)N[C@@H](CO)C(=O)N[C@@H](CC(C)C)C(=O)N[C@@H](CCCCN)C(=O)N[C@@H](Cc1ccccc1)C(=O)O [RPRCWIKIKFRCKSLKF]
